Measurements published in US20170232083A1, “METHODS OF DIAGNOSIS AND TREATMENT OF CELIAC DISEASE IN CHILDREN” (priority 2014, published 2017).

Tested on: PBMC (polyclonal gluten-specific T cells) of paediatric and adult CD patients
Experiment: IFN-γ ELISpot of PBMC after 3 day oral wheat challenge (SFU, % of maximal peptide response, dominance scores, EC50; Examples 5-6)
Assay type: cell-based, human
Details: for IFN-γ ELISpot response: after oral wheat challenge; for Cross-reactive T cell response: following wheat challenge
[1] = patient A, 11-17 yrs, cut-off 10 SFU
[2] = patient E, H, 11-17 yrs, cut-off 10 SFU
[3] = patient F, 11-17 yrs, cut-off 10 SFU
[4] = patient G, 11-17 yrs, cut-off 10 SFU
[5] = patient H (HLA-DQ2.5 homozygote), 3-5yrs, cut-off 10 SFU
[6] = patient H, 11-17 yrs, cut-off 10 SFU
[7] = patient ID not given, 11-17 yrs, cut-off 10 SFU
[8] = patient N, 3-5yrs, cut-off 10 SFU
[9] = patient P, 11-17 yrs, cut-off 21.6 SFU
[10] = patient Q, 11-17 yrs, cut-off 10 SFU
[11] = patient U, H, 11-17 yrs, cut-off 10 SFU
[12] = patient V, 6-10 yrs, cut-off 10 SFU
[13] = patient Y, 6-10 yrs, cut-off 10 SFU
[14] = patient eleven, 6-10 yrs, cut-off 10 SFU
[15] = patient four, 3-5yrs, cut-off 10 SFU
[16] = patient seven, 6-10 yrs, cut-off 10.5 SFU
[17] = patient seven, max peptide 27 SFU
[18] = patient ten, 3-5yrs, cut-off 10 SFU
[19] = patient three, 6-10 yrs, cut-off 10.5 SFU
[20] = patient twelve, 11-17 yrs, cut-off 10 SFU
[21] = patient two, 3-5yrs, cut-off 10 SFU

PFPLQPEQPFPQP was tested, and the “IFN-γ ELISpot response” value [1] was 6 SFU, the “Significant response as percentage of maximal peptide SFU” value (“Significant response as percentage” for short) (patient D, max peptide 30.5 SFU) was “′′′ (41-70% = ′′′)” and the “IFN-γ ELISpot response” value [2] was 30 SFU. The “Significant response as percentage” value (patient E, max peptide 224 SFU) was “′ (11-20% = ′)”, the “IFN-γ ELISpot response” value [3] was 35 SFU and the “Significant response as percentage” value (patient F, max peptide 178 SFU) was “′ (11-20% = ′)”. For the same sequence, the “IFN-γ ELISpot response” value [4] was 2 SFU, the “IFN-γ ELISpot response” value [5] was 24 SFU and the “IFN-γ ELISpot response” value [6] was 11 SFU. For the same sequence, the “Significant response as percentage” value (patient H, max peptide 17 SFU) was “′′′ (41-70% = ′′′)”, the “IFN-γ ELISpot response” value [7] was 28 SFU and the “Significant response as percentage” value (patient ID not given, max peptide 95 SFU) was “′′ (21-40% = ′′)”. The “Significant response as percentage” value (patient II, max peptide 15 SFU) was “+ (>70% = +)”, the “Significant response as percentage” value (patient J, max peptide 196 SFU) was “′′ (21-40% = ′′)” and the “Significant response as percentage” value (patient K, max peptide 53 SFU) was “′′′ (41-70% = ′′′)”. For the same sequence, the “Significant response as percentage” value (patient M, max peptide 48 SFU) was “′′′ (41-70% = ′′′)”, the “IFN-γ ELISpot response” value [8] was 7 SFU and the “IFN-γ ELISpot response” value [9] was 27 SFU. For the same sequence, the “Significant response as percentage” value (patient P, max peptide 64 SFU) was “′′′ (41-70% = ′′′)”, the “IFN-γ ELISpot response” value [10] was 43 SFU and the “Significant response as percentage” value (patient Q, max peptide 97 SFU) was “′′′ (41-70% = ′′′)”. The “IFN-γ ELISpot response” value [11] was 23 SFU, the “Significant response as percentage” value (patient U, max peptide 81 SFU) was “′′ (21-40% = ′′)” and the “IFN-γ ELISpot response” value [12] was 21 SFU. For the same sequence, the “Significant response as percentage” value (patient V, max peptide 35 SFU) was “′′′ (41-70% = ′′′)”, the “Significant response as percentage” value (patient W, max peptide 30 SFU) was “+ (>70% = +)” and the “IFN-γ ELISpot response” value [13] was 9 SFU. For the same sequence, the “Significant response as percentage” value (patient eight, max peptide 12 SFU) was “+ (>70% = +)”, the “IFN-γ ELISpot response” value [14] was 8 SFU and the “Significant response as percentage” value (patient five, max peptide 48 SFU) was “+ (>70% = +)”. The “IFN-γ ELISpot response” value [15] was 22 SFU, the “Significant response as percentage” value (patient four, max peptide 44 SFU) was “′′′ (41-70% = ′′′)” and the “IFN-γ ELISpot response” value [16] was 27 SFU. The “Significant response as percentage” value [17] was “+ (>70% = +)”, the “IFN-γ ELISpot response” value [18] was 8 SFU and the “IFN-γ ELISpot response” value [19] was 52 SFU. The “IFN-γ ELISpot response” value [20] was 15 SFU, the “IFN-γ ELISpot response” value [21] was 24 SFU and the “Significant response as percentage” value (patient two, max peptide 60 SFU) was “′′ (21-40% = ′′)”.

PFPLQPEQPVPEQPQ was tested, and the “Cross-reactive T cell response” value (subject A, 11-17yrs) was 2 SFU, the “Cross-reactive T cell response” value (subject D, 11-17yrs) was 9 SFU and the “Cross-reactive T cell response” value (subject E, 11-17yrs) was 3 SFU. The “Significant response as a percentage of maximal peptide SFU” value (“Significant response as a percentage” for short) (subject F, 11-17yrs) was “′ (11-20% = ′)”, the “Cross-reactive T cell response” value (subject F, 11-17yrs) was 20 SFU and the “Cross-reactive T cell response” value (subject G, 11-17yrs) was 0 SFU. The “Cross-reactive T cell response” value (subject H) was 3 SFU, the “Cross-reactive T cell response” value (subject I (3-5yrs/6-10yrs part)) was 1 SFU and the “Cross-reactive T cell response” value (subject J (3-5yrs/6-10yrs part)) was 3 SFU. The “Cross-reactive T cell response” value (subject K (3-5yrs/6-10yrs part)) was 5 SFU, the “Cross-reactive T cell response” value (subject P, 11-17yrs) was 6 SFU and the “Cross-reactive T cell response” value (subject Q, 11-17yrs) was 5 SFU. For the same sequence, the “Significant response as a percentage” value (subject T, 11-17yrs) was “′′ (21-40% = ′′)”, the “Cross-reactive T cell response” value (subject T, 11-17yrs) was 21 SFU and the “Significant response as a percentage” value (subject U, 11-17yrs) was “′ (11-20% = ′)”. The “Cross-reactive T cell response” value (subject U, 11-17yrs) was 10 SFU, the “Cross-reactive T cell response” value (subject V (3-5yrs/6-10yrs part)) was 7 SFU and the “Cross-reactive T cell response” value (subject W (3-5yrs/6-10yrs part)) was 11 SFU. The “Cross-reactive T cell response” value (subject Y (3-5yrs/6-10yrs part)) was 2 SFU, the “Cross-reactive T cell response” value (subject five (3-5yrs/6-10yrs part)) was 1 SFU and the “Cross-reactive T cell response” value (subject nine, 11-17yrs) was 1 SFU. For the same sequence, the “Cross-reactive T cell response” value (subject seven (3-5yrs/6-10yrs part)) was 1 SFU, the “Cross-reactive T cell response” value (subject six (3-5yrs/6-10yrs part)) was 3 SFU and the “Significant response as a percentage” value (subject ten) was “+ (>70% = +)”. For the same sequence, the “Cross-reactive T cell response” value (subject ten (3-5yrs/6-10yrs part)) was 11 SFU and the “Cross-reactive T cell response” value (subject two (3-5yrs/6-10yrs part)) was 5 SFU.

PFPQQPQQPFPQP was tested, and the “IFN-γ ELISpot response” value [1] was 0 SFU, the “IFN-γ ELISpot response” value [2] was 0 SFU and the “IFN-γ ELISpot response” value [3] was 1 SFU. For the same sequence, the “IFN-γ ELISpot response” value [4] was 0 SFU, the “IFN-γ ELISpot response” value [5] was 4 SFU and the “IFN-γ ELISpot response” value [6] was 2 SFU. The “IFN-γ ELISpot response” value [7] was 0 SFU, the “IFN-γ ELISpot response” value [8] was 2 SFU and the “IFN-γ ELISpot response” value [9] was 14 SFU. The “IFN-γ ELISpot response” value [10] was 9 SFU, the “IFN-γ ELISpot response” value [11] was 2 SFU and the “IFN-γ ELISpot response” value [12] was 3 SFU. The “IFN-γ ELISpot response” value [13] was 6 SFU, the “IFN-γ ELISpot response” value [14] was 3 SFU and the “IFN-γ ELISpot response” value [15] was 0 SFU. The “IFN-γ ELISpot response” value [16] was 1 SFU, the “IFN-γ ELISpot response” value [18] was 12 SFU and the “Significant response as percentage” value (patient ten, max peptide 14.5 SFU) was “+ (>70% = +)”. The “IFN-γ ELISpot response” value [19] was 5 SFU, the “IFN-γ ELISpot response” value [20] was 2 SFU and the “IFN-γ ELISpot response” value [21] was 3 SFU.

For PIPQQPQQPFPLQ, the “IFN-γ ELISpot response” value [1] was 6 SFU, the “IFN-γ ELISpot response” value [2] was 5 SFU and the “IFN-γ ELISpot response” value [3] was 5 SFU. The “IFN-γ ELISpot response” value [4] was 2 SFU, the “IFN-γ ELISpot response” value [5] was 0 SFU and the “IFN-γ ELISpot response” value [6] was 10 SFU. The “Significant response as percentage” value (patient H, max peptide 17 SFU) was “′′′ (41-70% = ′′′)”, the “IFN-γ ELISpot response” value [7] was 3 SFU and the “Significant response as percentage” value (patient II, max peptide 15 SFU) was “+ (>70% = +)”. For the same sequence, the “IFN-γ ELISpot response” value [8] was 1 SFU, the “IFN-γ ELISpot response” value [9] was 9 SFU and the “IFN-γ ELISpot response” value [10] was 13 SFU. The “Significant response as percentage” value (patient Q, max peptide 97 SFU) was “′ (11-20% = ′)”, the “IFN-γ ELISpot response” value [11] was 4 SFU and the “IFN-γ ELISpot response” value [12] was 9 SFU. For the same sequence, the “IFN-γ ELISpot response” value [13] was 5 SFU, the “IFN-γ ELISpot response” value [14] was 4 SFU and the “IFN-γ ELISpot response” value [15] was 1 SFU. For the same sequence, the “IFN-γ ELISpot response” value [16] was 14 SFU, the “Significant response as percentage” value [17] was “′′′ (41-70% = ′′′)” and the “IFN-γ ELISpot response” value [18] was 7 SFU. For the same sequence, the “IFN-γ ELISpot response” value [19] was 1 SFU, the “IFN-γ ELISpot response” value [20] was 1 SFU and the “IFN-γ ELISpot response” value [21] was 2 SFU.

With PQQPQQSFPQQQQPA the “IFN-γ ELISpot response” value [4] was 11 SFU, the “Significant response as percentage” value (patient G, max peptide 15 SFU) was “+ (>70% = +)” and the “IFN-γ ELISpot response” value [6] was 1 SFU. For the same sequence, the “IFN-γ ELISpot response” value [7] was 3 SFU, the “Significant response as percentage” value (patient K, max peptide 53 SFU) was “′′ (21-40% = ′′)” and the “IFN-γ ELISpot response” value [9] was 4 SFU. For the same sequence, the “IFN-γ ELISpot response” value [10] was 1 SFU, the “IFN-γ ELISpot response” value [11] was 2 SFU and the “IFN-γ ELISpot response” value [12] was 10 SFU. The “Significant response as percentage” value (patient V, max peptide 35 SFU) was “′′ (21-40% = ′′)”, the “IFN-γ ELISpot response” value [13] was 3 SFU and the “IFN-γ ELISpot response” value [14] was 0 SFU. For the same sequence, the “IFN-γ ELISpot response” value [15] was 0 SFU, the “IFN-γ ELISpot response” value [16] was 10 SFU and the “IFN-γ ELISpot response” value [18] was 7 SFU. The “IFN-γ ELISpot response” value [19] was 1 SFU and the “IFN-γ ELISpot response” value [21] was 0 SFU.
